Data set [1] in a line: Stability of the isolated free base on storage. Particulars: yellow oil, converted to hydrochloride salt for long-term storage. Type of data set: physicochemical.
The target in another data set is human 5-HT2A receptor (Homo sapiens, UniProt P28223). The data set can be described thus: 5HT2A Ke determination in FLIPR assay. The data set is classed as cell-based.

The structures appear in SMILES notation.

human 5-HT2A receptor, sequence (P28223 whole entry): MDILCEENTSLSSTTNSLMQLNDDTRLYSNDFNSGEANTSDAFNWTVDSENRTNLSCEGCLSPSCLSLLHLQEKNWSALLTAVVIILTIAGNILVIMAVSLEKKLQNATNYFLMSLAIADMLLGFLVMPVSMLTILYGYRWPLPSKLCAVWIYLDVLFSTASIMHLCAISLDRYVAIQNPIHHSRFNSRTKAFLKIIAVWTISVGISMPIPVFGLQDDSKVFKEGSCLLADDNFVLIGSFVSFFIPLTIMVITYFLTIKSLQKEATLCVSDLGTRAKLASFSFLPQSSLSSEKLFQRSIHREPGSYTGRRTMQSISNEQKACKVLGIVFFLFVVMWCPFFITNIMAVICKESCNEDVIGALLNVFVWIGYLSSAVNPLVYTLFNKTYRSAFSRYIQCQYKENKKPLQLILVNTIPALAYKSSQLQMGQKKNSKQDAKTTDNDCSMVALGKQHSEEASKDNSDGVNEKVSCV

For the molecule `COc1cc2c3c(c1OC)-c1cc4c(cc1CC3NCC2)OCO4` (stereo not drawn) [Compound 8a, 1,2-dimethoxy-5,6,6a,7-tetrahydro-4H-benzo[de][1,3]benzodioxolo[5,6-g]quinoline], in data set [1], the “stability of the compound” value is “unstable”.

Consider `COc1cc2c3c(c1OC)-c1cc4c(cc1CC3N(C(C)=O)CC2)OCO4` (stereo not drawn) [Compound 8c, 1,2-dimethoxy-6-acetyl-5,6,6a,7-tetrahydro-4H-benzo[de][1,3]benzodioxolo[5,6-g]quinoline], for which the Kb on human 5-HT2A receptor is > 10 µM.

As for `COc1cc2c3c(c1OC)-c1cc4c(cc1CC3N(S(C)(=O)=O)CC2)OCO4` (stereo not drawn) [Compound 8d, 1,2-dimethoxy-6-methanesulfonyl-5,6,6a,7-tetrahydro-4H-benzo[de][1,3]benzodioxolo[5,6-g]quinoline], at human 5-HT2A receptor, the Kb was > 10 µM.
